Here are results for 20 compounds from ChEMBL document CHEMBL1129838, “Synthesis and pharmacological evaluation of sulfone substituted HIV protease inhibitors” (Bioorg Med Chem Lett, 1997).

Where “and” joins values, the source holds several entries; their conditions need not be identical. Equal entries are not always repeated.

Experiment [1] deals with Human immunodeficiency virus type 1 protease (Human immunodeficiency virus 1, UniProt Q72874). The experiment can be described thus: Inhibition of HIV-1 protease.
The subject of experiment [2] is Human immunodeficiency virus 1. In words: Antiviral activity against HIV-1 IIIB in H9 (human leukemia) cells. Type of experiment: functional, organism-based.
Where [3] appears, read: Human immunodeficiency virus 1, H9.

As a reminder, the Ki is a dissociation constant, usually derived from enzyme kinetics or from competition with a known ligand. Broadly, the IC50 is the concentration that gives 50% inhibition. The low end stands for greater potency in that assay, the high end for weaker potency in that assay. In experiment [1], `O=c1cc(C(CC2CC2)CC2CC2)oc(O)c1C(c1cccc(CS(=O)(=O)c2ccccn2)c1)C1CC1` (centres undefined) yielded a Ki of 0.0023 µM. Further, the IC50 in experiment [2] (setting [3]) came out at 7.7 µM.
With `Cn1ccnc1S(=O)(=O)Nc1cccc(C(c2c(O)cc(C(CC3CC3)CC3CC3)oc2=O)C2CC2)c1` (centres undefined), in experiment [1], affinity was put at a Ki of 0.00073 µM. Further, in experiment [2] (h9), the IC50 is > 1 µM and < 3 µM.
On to `O=c1c2c(oc(O)c1C(c1cccc(CS(=O)(=O)c3ccccn3)c1)C1CC1)CCCCCC2` (centres undefined), for which the Ki in experiment [1] came to 0.0019 µM. This compound registered an IC50 in experiment [2] (setting [3]) of 10 µM.
In turn, `O=c1cc(C(CC2CC2)CC2CC2)oc(O)c1C(c1cccc(NS(=O)(=O)c2ccccn2)c1)C1CC1` (centres undefined) registered a Ki in experiment [1] of 0.00066 µM. Further, in experiment [2] (h9), the IC50 was > 1 µM and < 3 µM.
Regarding `O=c1c2c(oc(O)c1C(c1cccc(CS(=O)(=O)c3ccc(F)cc3)c1)C1CC1)CCCCCC2` (centres undefined), in experiment [1], the Ki is 0.0021 µM. This compound also displayed a concentration for half-maximal inhibition (IC50) in experiment [2] (setting [3]) of 14.5 µM.
The like results for `N#Cc1ccc(S(=O)(=O)Cc2cccc(C(c3c(O)oc4c(c3=O)CCCCCC4)C3CC3)c2)cc1` (centres undefined) were, in that order, 0.0019 µM and 20.5 µM.
For `O=C(O)c1ccc(S(=O)(=O)Cc2cccc(C(c3c(O)c4c(oc3=O)CCCCCC4)C3CC3)c2)cc1` (centres undefined), in experiment [1], the affinity, expressed as Ki, was 0.007 µM. In addition, the IC50 in experiment [2] (setting [3]) is more than 30 µM.
Consider `Cc1ccc(S(=O)(=O)Cc2cccc(C(c3c(O)c4c(oc3=O)CCCCCC4)C3CC3)c2)cc1` (centres undefined), for which affinity in experiment [1] was put at a Ki of 0.0041 µM. In experiment [2] (setting [3]), this compound showed an IC50 of more than 30 µM.
`O=c1c2c(oc(O)c1C(c1cccc(CS(=O)(=O)c3ccccc3)c1)C1CC1)CCCCCC2` (centres undefined) gave a Ki in experiment [1] of 0.006 µM. Moreover, the IC50 in experiment [2] (setting [3]) is more than 30 µM.
The like results for `O=c1cc(C(CC2CC2)CC2CC2)oc(O)c1C(c1cccc(CS(=O)(=O)c2ccc(F)cc2)c1)C1CC1` (centres undefined) were, in that order, 0.019 µM and 19.8 µM.
The like results for `Cn1ccnc1S(=O)(=O)Nc1cccc(C(c2c(O)c3c(oc2=O)CCCCCC3)C2CC2)c1` (centres undefined) were, in that order, 0.0011 µM and more than 3 µM.
In experiment [2] (setting [3]), `O=c1c2c(oc(O)c1C(c1cccc(NS(=O)(=O)c3ccccc3)c1)C1CC1)CCCCCC2` (centres undefined) came in with an IC50 of 5 µM.
`O=c1c2c(oc(O)c1C(c1cccc(NS(=O)(=O)c3ccccn3)c1)C1CC1)CCCCCC2` (centres undefined): affinity in experiment [1] was put at a Ki of 0.00086 µM. In experiment [2] (setting [3]), this compound yielded an IC50 of less than 1 µM.
In experiment [2] (setting [3]), `O=C(O)c1ccc(S(=O)(=O)Nc2cccc(C(c3c(O)c4c(oc3=O)CCCCCC4)C3CC3)c2)cc1` (centres undefined) came in with an IC50 of more than 10 µM.
In the case of `N#Cc1ccc(S(=O)(=O)Nc2cccc(C(c3c(O)c4c(oc3=O)CCCCCC4)C3CC3)c2)cc1` (centres undefined), it took 1.5 µM to reach half-maximal inhibition in experiment [2] (setting [3]) (IC50).
In experiment [2] (setting [3]), `O=c1c2c(oc(O)c1C(c1cccc(NS(=O)(=O)c3ccc(F)cc3)c1)C1CC1)CCCCCC2` (centres undefined) yielded an IC50 of 2.1 µM.
Same read-out and setting: the result for `Cc1ccc(S(=O)(=O)Nc2cccc(C(c3c(O)c4c(oc3=O)CCCCCC4)C3CC3)c2)cc1` (centres undefined) reads 3.6 µM.
In the case of `Cn1ccnc1S(=O)(=O)Cc1cccc(C(c2c(O)c3c(oc2=O)CCCCCC3)C2CC2)c1` (centres undefined), the Ki in experiment [1] is 0.003 µM. Half-maximal inhibition in experiment [2] (setting [3]) (IC50) required 20.4 µM.
The like results for `Cn1ccnc1S(=O)(=O)Cc1cccc(C(c2c(O)cc(C(CC3CC3)CC3CC3)oc2=O)C2CC2)c1` (centres undefined) were, in that order, 0.0031 µM and 12 µM.
The compound `O=c1cc(C(CC2CC2)CC2CC2)oc(O)c1C(c1cccc(NS(=O)(=O)c2ccc(F)cc2)c1)C1CC1` (centres undefined) displayed an IC50 in experiment [2] (setting [3]) of 2.2 µM.
